# Test system: H358 (KRAS G12C mutant) cells
# Assay: Tumor cell proliferation inhibition assay (Cell Titer-Glo, 72 h)
# Format: cell-based
# Details: inhibition of tumor cell proliferation, 72 hours with compound, 10% fetal bovine serum; read-out: NCI-H538 IC50(nm)
# Protocol: The H358 (KRAS G^12C mutant) cells were digested, centrifuged and resuspended, and the cell density was measured with a Scepter automatic cell counter. The cells were diluted to a solution containing 44,000 cells per milliliter, and the density-adjusted cell solution was 90 microliters per well. into a 96-well culture plate. The 96-well plate was placed in a 37° C., 5% CO2 incubator. After the cells were cultured for 24 hours, different concentrations of the compounds to be tested were added. The cells were incubated with the compounds for 72 hours in the presence of 10% fetal bovine serum. Glo Luminescent Cell Viability Assay Kit (see manufacturer's instructions for details) was used to measure ATP content to assess cell growth inhibition. Briefly, 30 μl of Cell Titer-Glo reagent was added to each well, and the plate was shaken for 10 minutes to induce cell lysis. Fluoroskan
# Ascent FL (Thermo) assay was used to record the fluorescent signal, and the maximum signal value was obtained from cells treated with dimethyl sulfoxide for 72 hours. The minimum signal value was obtained from the medium alone (the number of cells was zero), and the % inhibition rate=(the maximum signal value compound signal value)/(the maximum signal value—the minimum signal value×100%, and the data were processed using Graphpadprism 5 software. By sigmoid Dose-response curve fitting to calculate the IC50 value. “A” means IC50≤50 nM; “B” means 50<IC50≤500 nM; “C” means 500<IC50≤2000 nM; “D” means 2000 nM<IC50
row,IC50 [nM],SMILES
1,≤ 50,"C=C(F)C(=O)N1C2CCC1CN(c1nc(OC[C@@]34CCCN3C[C@H](F)C4)nc3c(F)c(-c4cc(O)cc5cccc(F)c45)c(Cl)cc13)C2 [Compound 42, 6-Chloro-74(3-hydroxy-8-fluoronaphthyl)-8-fluoro-4-(8-(2-fluoroacryloyl)-3,8-diazabicyclo[3.2.1]octane-3-yl)-2-(((2R,7aS)-2-fluorotetrahydro-1H-pyrincycline-7a(5H)-yl)methoxy)quinazoline]"
2,≤ 50,"C=C(F)C(=O)N1CCN(c2nc(OC[C@@]34CCCN3C[C@H](F)C4)nc3c(F)c(-c4cc(O)cc5cccc(F)c45)c(Cl)cc23)[C@H](C)C1 [Compound 44, 6-Chloro-74(3-hydroxy-8-fluoronaphthyl)-8-fluoro-4-(((R)-4-(2-fluoroacryloyl)-2-methylpiperazine)-1-yl)-2-(((2R,7aS)-2-fluorotetrahydro-1H-pyrincycline-7a(5H)-yl)methoxy)quinazoline]"
3,≤ 50,"C=CC(=O)N1CCN(c2nc(OC[C@@]34CCCN3C[C@H](F)C4)nc3c(F)c(-c4cc(O)cc5cccc(F)c45)c(Cl)cc23)[C@H](C)C1 [Compound 46, 6-Chloro-7-(3-hydroxy-8-fluoronaphthyl)-8-fluoro-4-(((R)-4-acryloyl-2-methylpiperazine)-1-yl)-2-(((2R,7aS)-2-fluorotetrahydro-1H-pyrinyl-7a(5H)-yl)methoxy)quinazoline]"
4,≤ 50,"C=CC(=O)N1CCN(c2nc(OC[C@@]34CCCN3C[C@H](F)C4)nc3c(F)c(-c4cccc5cccc(F)c45)ccc23)[C@H](C)C1 [Compound 47, 7-(8-Fluoronaphthyl)-8-fluoro-4-(((R)-4-acryloyl-2-methylpiperazine)-1-yl)-2-(((2R,7aS)-2-fluorotetrahydro-1H-pyrincyclo-7a(5H)-yl)methoxy)quinazoline]"
5,≤ 50,"C=CC(=O)N1CCN(c2nc(OC[C@@]34CCCN3C[C@H](F)C4)nc3c(F)c(-c4cc(O)cc5cccc(F)c45)ccc23)[C@H](C)C1 [Compound 48, 7-(3-Hydroxy-8-fluoronaphthyl)-8-fluoro-4-(((R)-4-acryloyl-2-methylpiperazine)-1-yl)-2-(((2R, 7aS)-2-fluorotetrahydro-1H-pyrincycline-7a(5H)-yl)methoxy)quinazoline]"
6,≤ 50,"C=CC(=O)N1CCN(c2nc(OCC34CCCN3CCC4)nc3c(F)c(-c4cc(O)cc5cccc(F)c45)ccc23)[C@H](C)C1 [Compound 49, 7-(3-Hydroxy-8-fluoronaphthyl)-8-fluoro-4-(((R)-4-acryloyl-2-methylpiperazine)-1-yl)-2-((tetrahydro-1H-pyrinyl-7a(5H)-yl)methoxy)quinazoline]"
7,≤ 50,"C=CC(=O)N1CCN(c2nc(OCC34CCCN3CCC4)nc3c(F)c(-c4cccc5cccc(F)c45)ccc23)[C@H](C)C1 [Compound 50, 7-(8-fluoronaphthyl)-8-fluoro-4-(((R)-4-acryloyl-2-methylpiperazine)-1-yl)-2-((tetrahydro-1H-pyrinecyclo-7a(5H)-yl)methoxy)quinazoline]"
8,≤ 50,C=C(F)C(=O)N1CCN(c2nc(OC[C@@]34CCCN3C[C@H](F)C4)nc3c(F)c(-c4cc(O)cc5cccc(F)c45)ccc23)C[C@@H]1CC#N [Compound 52]
9,≤ 50,"C=CC(=O)N1CCN(c2nc(OCC34CCCN3CCC4)nc3c(F)c(-c4cccc5cccc(F)c45)ccc23)C[C@@H]1CC#N [Compound 54, 7-(8-fluoronaphthyl)-8-fluoro-4-(((S)-4-(acryloyl)-3-carbonitrileethylpiperazine)-1-yl)-2-((tetrahydro-1H-pyrin-7a(5H)-yl)methoxy)quinazoline]"
10,≤ 50,C=CC(=O)N1CCN(c2nc(OCC34CCCN3CCC4)nc3c(F)c(-c4cc(O)cc5cccc(F)c45)ccc23)C[C@@H]1CC#N [Compound 55]
11,≤ 50,C=C(F)C(=O)N1CCN(c2nc(OCC34CCCN3CCC4)nc3c(F)c(-c4cc(O)cc5cccc(F)c45)ccc23)C[C@@H]1CC#N [Compound 57]
12,≤ 50,"C=CC(=O)N1CCN(c2nc(OC[C@@]34CCCN3CC(F)(F)C4)nc3c(F)c(-c4cc(O)cc5cccc(F)c45)ccc23)[C@H](C)C1 [Compound 60, 7-(3-Hydroxy-8-fluoronaphthyl)-8-fluoro-4-(((R)-4-acryloyl-2-methylpiperazine)-1-yl)-2-(((S)-2,2-difluorotetrahydro-1H-pyrinyl-7a(5H)-yl)methoxy)quinazoline]"
13,≤ 50,C=CC(=O)N1CCN(c2nc(OC[C@@]34CCCN3CC(F)(F)C4)nc3c(F)c(-c4cccc5cccc(C)c45)ccc23)C[C@@H]1CC#N [Compound 67]
14,≤ 50,"C=C(F)C(=O)N1CCN(c2nc(OC[C@@]34CCCN3CC(F)(F)C4)nc3c(F)c(-c4cccc5cccc(C)c45)ccc23)C[C@@H]1CC#N [Compound 68, 7-(8-Methylnaphthyl)-8-fluoro-4-(((S)-4-(2-fluoroacryloyl)-3-carbonitrileethylpiperazine)-1-yl)-2-(((S)-2,2-difluorotetrahydro-1H-pyrinyl-7a(5H)-yl)methoxy)quinazoline]"
15,≤ 50,"C=C(F)C(=O)N1CCN(c2nc(OC[C@@]34CCCN3CC(F)(F)C4)nc3c(F)c(-c4cccc5cccc(F)c45)c(Cl)cc23)C[C@@H]1CC#N [Compound 78, 6-Chloro-7-(8-fluoronaphthyl)-8-fluoro-4-(((S)-4-(2-fluoroacryloyl)-3-carbonitrileethylpiperazine)-1-yl)-2-(((S)-2,2-difluorotetrahydro-1H-pyrincycline-7a(5H)-yl)methoxy)quinazoline]"

row,SMILES,IC50 [nM]
1,"C=C(F)C(=O)N1CCN(c2nc(OCC34CCCN3CCC4)nc3c(F)c(-c4cccc5cccc(F)c45)ccc23)C[C@@H]1CC#N [Compound 58, 7-(8-fluoronaphthyl)-8-fluoro-4-(((S)-4-(2-fluoroacryloyl)-3-carbonitrileethylpiperazine)-1-yl)-2-((tetrakis Preparation of Hydro-1H-Pyrin-7a(5H)-yl)methoxy)quinazoline]",≤ 50
2,C=C(F)C(=O)N1CCN(c2nc(OC[C@@]34CCCN3CC(F)(F)C4)nc3nc(-c4cccc5cccc(F)c45)c(F)cc23)C[C@@H]1CC#N [Compound 83],≤ 50
3,"C=C(F)C(=O)N1CCN(c2nc(OC[C@@]34CCCN3CC(F)(F)C4)nc3nc(-c4cc(O)cc5cccc(F)c45)c(F)cc23)C[C@@H]1CC#N [Compound 84, 7-(3-Hydroxy-8-fluoronaphthyl)-6-fluoro-4-(((S)-4-(2-fluoroacryloyl)-3-carbonitrileethylpiperazine)-1-yl)-2-(((S)-2,2-difluorotetrahydro-1H-pyrinyl-7a(5H)-yl)methoxy)pyridine[2,3-d]lopyrimidine]",≤ 50
4,"C=CC(=O)N1CCN(c2nc(OC[C@@]34CCCN3CC(F)(F)C4)nc3nc(-c4cccc5cccc(F)c45)ccc23)[C@H](C)C1 [Compound 86, 7-(8-Fluoronaphthyl)-4-(((R)-4-Acryloyl-2-methylpiperazine)-1-yl)-2-(((S)-2,2-difluorotetrakisHydro-1H-pyrincycl-7a(5H)-yl)methoxy)pyridine[2,3-d]lopyrimidine]",≤ 50
5,"C=CC(=O)N1CCN(c2nc(OC[C@@]34CCCN3C[C@H](F)C4)nc3nc(-c4cccc5cccc(C)c45)ccc23)[C@H](C)C1 [Compound 89, 7-(8-Methylnaphthyl)-4-(((R)-4-Acryloyl-2-methylpiperazine)-1-yl)-2-(((2R,7aS)-2-fluorotetrahydro-1H-pyrincycl-7a(5H)-yl)methoxy)pyridine[2,3-d]lopyrimidine]",≤ 50

# Reference: patent publication US20240182470A1, “KRASG12C MUTANT PROTEIN INHIBITOR, PREARATION AND USE THEREOF” (YA THERAPEUTICS INC, priority 2021, published 2024)
